Measurements reported in PMC10126419, “pyHeart4Fish: Chamber-specific heart phenotype quantification of zebrafish in high-content screens” (Frontiers in Cell and Developmental Biology, 2023).
“Also recorded” adds a separate entry of the source. Counter-ions that a name gives are not always drawn.

Tests used:
[1] = test system: Tg(myl7:eGFP)^twu34/+ zebrafish embryos; assay: Chamber-specific quantitative heart phenotyping with pyHeart4Fish; conditions: 20 µM; for Effect on heart function / morphology: contractility, conduction, arrhythmia, HS, EF / Effect on heart rate: vs DMSO controls; for Arrhythmia / Conduction defect: number of fish;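 for all read-outs here: embryos exposed 24 h from 24 hpf in 0.2% DMSO egg water, tricaine-anaesthetised, heartbeat videos imaged at 470 nm and hearts analysed chamber by chamber from pixel-intensity beat curves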
Protocol: (§1) Embryos were dechorionated at 21 hpf using 0.22 mg/ml pronase (Merck Chemicals) for 12 min. Then, embryos were carefully washed three times with egg water and transferred into a 96-deep-well plate. After incubation at 28°C for 3 h, excess water was removed with a glass capillary and exchanged with 100 µL/well of 20 µM compound solution from the Prestwick Chemical Library (Prestwick Chemicals, France) in 0.2% DMSO (v/v) in egg water. […] Subsequently, embryos were exposed to compounds for 24 h at 28°C in the dark to enable testing of light-sensitive compounds. Solutions were removed at 48 hpf before wells containing embryos were washed three times with system water. Then, treated embryos were transferred into 12-well plates containing 1 ml 0.03% tricaine in system water (Sigma-Aldrich, Germany). Testing different concentrations (5–80 µM) of compounds and their respective controls followed the above protocol.
Oriented embryos in 96-well plates were automatically imaged using an [sequence] Imaging Machine ([sequence] Imaging, Germany) widefield microscope. Z-stacks of 10 slices (dZ = 15 µm) were acquired in brightfield (BF) and 470 nm channels with a 4×0.13 numerical aperture objective. The focal plane was detected in the 470 nm channel using a course and secondary fine software autofocus. BF integration time was fixed at 20 ms exposure time and 55% LED intensity. The exposure time for the 470 nm channel was set to 10 ms with a 10% LED intensity. Heartbeat videos of 6 s at 6 frames/second (f/s) were acquired with a time-lapse at a 0 s interval in the focus plane acquired after secondary autofocus using the previously described integration and exposure settings with a 10×0.25 numerical aperture objective.
Hearts are analyzed chamber-specifically via the user-assisted region of interest (ROI) selection. Cardiac morphology parameters (HS and shape) are extracted as the median of the first six images/frames. Raw data of heartbeat curves for the atrium and ventricle are derived from the sum of pixel intensities and normalized chamber areas. Frequencies (in s^-1) of atrium and ventricle contraction are obtained by applying sine-curve fitting or fast Fourier transformation (FFT) using the SciPy modules “optimize.curve_fit” and “fft.rfft/fft.rfftfreq”, respectively ([Virtanen et al., 2020]). Curve fitting is performed with a maximum of 30 iterations while increasing the frequencies of the fitted sine function. The best fit is selected using the correlation coefficient between the raw data and the fitted function implemented in the NumPy package. A fitted sine function and fitting score are also determined for a truncated signal (first quarter), and the best-fitted sine function is kept to account for an unstable heartbeat signal. In the case of FFT, the first harmonic of the FFT signal is used as the frequency of the atrium or ventricle contraction. Analysis with pyHeart4Fish provides heartbeat videos in GIF format, heartbeat curves as PNG/PDF files and a data sheet containing meta information and cardiac parameters.

[2] = test system: zebrafish embryos; assay: Manually assessed pericardial edema in treated zebrafish; assay type: in vivo; conditions: 20 µM; for Pericardial edema severity: myl7:eGFP zebrafish; for Edema: Mild / Edema: Moderate / Edema: No edema / Edema: Severe: number of fish, Tg(myl7:eGFP)
Excerpt: FIGURE 4 Quantitative data analysis with pyHeart4Fish. […] (A) The left graph presents the detected heart rate derived from the fast fourier transformation (FFT). […] (B) Percentual data on the severity of manually assessed pericardial edema in treated Tg(myl7:eGPF)^twu34/+ zebrafish. (C) The relative contractility derived from percentual size changes of each heart chamber (left graph). Approximate ejection fraction determined by chamber volume changes (right graph). […] The number of fish analyzed is shown in brackets after the treatment condition. Dotted gray lines indicate z-scores of ±1.96 and statistical significance with an alpha error of 5%.

[3] = test system: zebrafish embryos; assay: Toxicity score (ToxScore) at increasing compound concentrations; conditions: for ToxScore: 80 µM
Protocol: as §1
Embryos that were deceased and not intact were assigned a max. ToxScore value of 5.

[4] = test system: zebrafish embryos; assay: Gross morphology / development of treated zebrafish 2 dpf (brightfield); assay type: in vivo; conditions: 20 µM, 2 dpf
Protocol: FIGURE 5 Morphology of treated zebrafish 2 dpf. An overview of the gross phenotypes of treated zebrafish 2 days post-fertilization. All compounds were dissolved in DMSO; therefore, DMSO served as the negative control. NaCl served as the salt control. The effects of atorvastatin treatment on zebrafish embryos were previously established; thus, this drug was used as a positive control for cardioactivity. The aquatic toxic compound enilconazole was used as the toxic positive control. […] The black arrow in the image of iopanoic acid-treated zebrafish embryo indicates caudal fin deformity. The scale bar indicates 500 µm in overview brightfield images and 150 µm in fluorescence images. (a) Atrium; (v) ventricle.

[5] = test system: zebrafish embryos; assay: Manually assessed pericardial edema in treated zebrafish; assay type: in vivo; conditions: 20 µM, fli1a:eGFP zebrafish
[6] = test system: zebrafish embryos; conditions: 71 μM, ref Yang et al., 2014; cited from earlier work
[7] = design: method as in Prestwick Chemical Library; conditions: library annotation, ref Prestwick Chemical Library; cited from earlier work
[8] = design: method as in Prestwick Chemical Library; conditions: solvents; library annotation, ref Prestwick Chemical Library; cited from earlier work
[9] = test system: Tg(fli1a:nEGFP)^y7 zebrafish embryos; assay: Primary high-content heart rate screen of the Prestwick Chemical Library (HeartBeat software v.2.1); assay type: in vivo; conditions: Tg(fli1a:nEGFP)^y7, zebrafish, in vivo, 24 h, 20 µM
Excerpt: Acquired image series were preprocessed and analyzed using the previously published HeartBeat software v.2.1 and provided scripts ([Gierten et al., 2020]). For increased comparability between experiments, each quantitative HR value (beats per minute) was divided by the mean of the DMSO controls from the respective experiment. This procedure minimizes variation and creates specific fold-change values that are z-score normalized in the next step. A 90% CI was used to reduce the probability of false-negative results. Finally, data from compounds with insufficient N and known aquatic toxicity were removed.
Based on a previously established high-throughput screening pipeline, we performed a high-content drug screen in zebrafish for cardiovascular modulators ([Poureetezadi et al., 2014]; [Gierten et al., 2020]; [Westhoff et al., 2020]). […] About 98% of the library’s compounds are approved by the Food and Drug Administration (FDA), European Medicines Agency (EMA) or other regulatory agencies. The drug library was screened at a concentration of 20 µM for 24 h until 48 hpf using the transgenic zebrafish line Tg(fli1a:nEGFP)^y7. Subsequently, BF images and videos were captured at 2 dpf to assess gross morphology. HR was analyzed with the previously published tool HeartBeat (v.2.1) to identify potential hit compounds. A 90% CI threshold for effect sizes of ±1.64 was used to reduce false-negative results. […] The Open Targets platform and the Mayo Clinic Drugs and Supplements Database were systematically searched for compound names and common synonyms ([Drugs and Supplements, 2022]; [Open Targets, 2022]). The Medical Subject Headings (MeSH) terms “compound name” and “heart rate” were applied to NCBI PubMed literature research before the first five pages of publications sorted by relevance were screened for relevant information. Furthermore, compounds were filtered for unknown targets (n = 3), FDA black box warning (n = 6) and aquatic toxicity (n = 4). […] Therefore, compounds with n < 3 were excluded (n = 7).

[10] = test system: Tg(myl7:eGFP)^twu34/+ zebrafish embryos; conditions: 20 µM; for Embryos with Mobitz type II atrioventricular block (AVB): Tg(myl7:eGFP)^twu34/+, zebrafish, in vivo, 24 h
Excerpt: Nevertheless, it is advised that arrhythmia types are confirmed manually, as was done in this study.

Structure (SMILES)	Effect on heart function / morphology: contractility, conduction, arrhythmia, HS, EF [1]	Arrhythmia [1]	Conduction defect [1]	Edema: Mild [2]	Edema: Moderate [2]	Edema: No edema [2]	Edema: Severe [2]	ToxScore [3]	Lit. Solubility [8]	Effect on heart rate [1]	Z-score Heart rate [9] [z-score]	also measured
CCC(Cc1c(I)cc(I)c(N)c1I)C(=O)O (stereo not drawn) [Iopanoic acid]	Contractility, HS and EF were not affected	0	0	2	1	1	0	4.4				Pericardial edema severity [2]: mild edema; Gross morphology / developmental and teratogenic effects ([4]; listed as IOP): developmental delay; also recorded: caudal fin deformities; Pericardial edema severity [5]: moderate edema
C[C@@H]1C[C@@H]([C@H](O)CC2CC(=O)NC(=O)C2)C(=O)[C@@H](C)C1 [Cycloheximide]		3	0	0	3	1	3					Pericardial edema severity [2]: moderate to severe pericardial edema; Effect on ventricular volume [6]: decreased ventricular volume; Concentration-dependent toxic effects ([3]; 5–80 µM): doses higher than 40 µM induced cardiac arrest and severe pericardial edema; Gross morphology / developmental and teratogenic effects ([4]; listed as CHX): bent tails; also recorded: development was delayed
Cc1cccc(CN2CCN(C(c3ccccc3)c3ccc(Cl)cc3)CC2)c1.Cl.Cl (stereo not drawn) [Meclozine dihydrochloride]									CHCl3, pyridine			Metabolism: tissue [7]: Liver
CN(C)CCN(Cc1ccccc1)c1ccccn1 [Tripelennamine HCl, tripelennamine HCl]		0	0	4	5	2	0		DMSO	decreased HR	-2.358	ToxScore, highest over tested concentrations ([3]; 5–80 µM): ≤ 2.6; Gross morphology / developmental and teratogenic effects [4]: development was not delayed
CN(C)CCN(Cc1ccc(Cl)cc1)c1ccccn1 [Chloropyramine HCl, chloropyramine HCl]	a slower HR in the ventricle than in the atrium	0	2	4	7	0	0	4.8	DMSO	decreased HR	-2.971	Embryos with Mobitz type II atrioventricular block (AVB) [10]: 18.2%
COc1ccc(CCN2CCC(Nc3nc4ccccc4n3Cc3ccc(F)cc3)CC2)cc1 [Astemizole]									CH2Cl2, MeOH		-7.189	Metabolism: tissue [7]: Liver
CNCC[C@@H](Oc1cccc2ccccc12)c1cccs1 [(R)-Duloxetine HCl]		0	2	1	3	0	2			not significantly decreased		Treated embryos with atrial flutter [10]: 33%; Fraction of embryos with atrial flutter ([10]; manual analysis of heartbeat videos): one-third; Concentration-dependent toxic effects ([3]; 5–80 µM, listed as DLX): dose-dependently increased the ToxScore; also recorded: complete lethality at 80 µM
Oc1ccc(OCc2ccccc2)cc1 [Monobenzone]	did not cause any other alterations to heart phenotypes	3	0	3	2	3	2	≤ 2.5				Gross morphology / developmental and teratogenic effects [4]: caused depigmentation without delaying development
CN(C)CCN(Cc1cccs1)c1ccccn1 [Methapyrilene HCl, methapyrilene HCl]		2	2	1	2	1	1		H2O, EtOH, CHCl3	decreased HR	-2.21	Embryos with Mobitz type II atrioventricular block (AVB) [10]: 50%
